The values that follow come from patent publication US7858655B2, “Drug preparation comprising α-lipoic acid, ambroxol and/or inhibitors of the angiotensin-converting enzyme (ACE) and its use for the treatment of neurodegenerative diseases” (Keyneurotek Pharmaceuticals AG, priority 2004, dated 2010).

The assay deals with neuronal cells in organotypical hippocampal tissue cuts. Description: transient oxygen/glucose deprivation (OGD) of organotypical hippocampal tissue cuts, neuronal damage. Type of assay: cell-based, rats. Particulars: for neuronal damage, % of the damaged surface area, Median / neuronal damage, % of the damaged surface area, Average Value: after standard OGD with the substance applied, cocktail = α-lipoic acid 10 μg/ml, ambroxol 10 μM, Enalapril 20 μg/ml; for neuronal damage, % of the damaged surface area, Average Value: Control OGD (vehicle) 11.70-13.98; for neuroprotective effect, reduction of the neuronal damage after OGD (in words): after transient OGD, versus standard damage. The source says:
For examining the neuroprotective effect of the thiol-reactive substances, the procedure of a transient ischemia for organotypical hippocampal tissue cuts was used, which procedure was standardized in our laboratory. By such a procedure, there are obtained three-dimensional cultivated explantates having a high prediction value for subsequent clinical experiments. In those tissue cultures containing neuronal as well as non-neuronal cells, highly complex intercellular connections are maintained largely. They are of extraordinary importance for the functionality of the whole CNS. The cerebral tissue cultures are exposed to a degenerative event which results into a death of neuronal cells in analogy to clinical situations. The tissue cuts (375 μm) were prepared subsequently from the hippocampus of rats (P7). The cultivation of those cut cultures was effected on membrane inserts having a pore size of 0.02 μm. After 10 to 12 days of cultivation (37° C. in an incubator; 3.3% CO2; 98% relative air humidity), the restructuration processes within the tissue cultures were finished, and a clinical relevant neurodegenerative event was simulated on the tissue cuts by means of a transient oxygen/glucose deprivation. The effect of the substanc(es) was measured in the form of a standard damage change (vehicle application). […] There was quantified the neuronal damage after a standard OGD with and without the application of the cocktail as well as the damage by the application of the cocktail per se (optional toxicity of the substance). The damage is expressed in % of the damaged surface area. In order to obtain such figures, in each tissue cut the whole surface area was compared with the damaged surface area. […] The experiments are based on the protocol described in Example 2. In the course of the experiments shown in FIGS. […], the protective effect of the cocktail was compared with the standard damage after OGD and with the effect resulting from an application of the single substances. […] Tables […] show the relevant statistical parameters.

Structures can show the parent of a compound that is named as a salt.

As for `CCOC(=O)[C@H](CCc1ccccc1)N[C@@H](C)C(=O)N1CCC[C@H]1C(=O)O` [Enalapril, 1-{N-[(S)-1-Ethoxycarbonyl-3-phenylpropyl-]L-alanyl-}L-proline], the “neuronal damage, % of the damaged surface area, Median” value (“neuronal damage, % … Median” for short) was 8.70%; the “neuronal damage, % of the damaged surface area, Average Value” (from here on “neuronal damage, % … Average Value”) came out at 11.23%; the “neuroprotective effect, reduction of the neuronal damage after OGD (in words)” value (“neuroprotective effect, reduction” for short) is listed as “neither α-lipoic acid nor ambroxol nor the ACE inhibitor, if applied alone, were capable of reducing the neuronal damage significantly”.
In the case of `O=C(O)CCCC[C@@H]1CCSS1` [α-Lipoic Acid, (R)-5-(1,2-dithiolane-3-yl-)pentanoic acid], the “neuronal damage, % … Median” value is recorded as 13.54%; the “neuronal damage, % … Average Value” is 14.82%; the “neuroprotective effect, reduction” value is “neither α-lipoic acid nor ambroxol nor the ACE inhibitor, if applied alone, were capable of reducing the neuronal damage significantly”.
`Nc1c(Br)cc(Br)cc1CNC1CCC(O)CC1` (stereo not drawn) [Ambroxol, trans-4-(2-amino-3,5-dibromobenzylamino-) cyclohexane hydrochloride]: the “neuronal damage, % … Median” value is listed as 8.32%; the “neuronal damage, % … Average Value” worked out at 10.79%; the “neuroprotective effect, reduction” value is listed as “neither α-lipoic acid nor ambroxol nor the ACE inhibitor, if applied alone, were capable of reducing the neuronal damage significantly”.
